In this assay the test system is MV-4-11 cells. Put plainly: Gene expression microarray analysis (Affymetrix PrimeView) and GSEA. The note with it: ProbeSet 11728443_a_at; LIST B. Set-up: RFU PODN (11730768_x_at) / Fold change /veh PODN (11730768_x_at) / RFU LINC00158 (11744669_a_at) / Fold change /veh LINC00158 (11744669_a_at) / RFU DUSP10 (11751237_a_at) / Fold change /veh DUSP10 (11751237_a_at) / RFU ID3 (11757404_x_at) / Fold change /veh ID3 (11757404_x_at) / RFU PLEKHG5 (11737974_s_at) / Fold change /veh PLEKHG5 (11737974_s_at) / RFU LRRC4B (11730491_at) / Fold change /veh LRRC4B (11730491_at) / RFU GIMAP4 (11747438_a_at) / Fold change /veh GIMAP4 (11747438_a_at) / RFU KRT8 (11758183_x_at) / Fold change /veh KRT8 (11758183_x_at) / RFU CNN1 (11734310_a_at) / Fold change /veh CNN1 (11734310_a_at) / RFU VPS37D (11726825_at) / Fold change /veh VPS37D (11726825_at) / RFU C10orf10 (11716522_x_at) / Fold change /veh C10orf10 (11716522_x_at) / RFU KIR2DL2 /// KIR2DL4 /// KIR2DL5A /// KIR2DL5B /// KIR2DS1 /// KIR2DS2 /// KIR2DS3 /// KIR2DS4 /// KIR3DL3 /// KIR3DL3 /// KIR3DS1 (11738374_at) / Fold change /veh KIR2DL2 /// KIR2DL4 /// KIR2DL5A /// KIR2DL5B /// KIR2DS1 /// KIR2DS2 /// KIR2DS3 /// KIR2DS4 /// KIR3DL3 /// KIR3DL3 /// KIR3DS1 (11738374_at) / RFU C1QL1 (11718748_at) / Fold change /veh C1QL1 (11718748_at) / RFU TMPRSS4 (11747572_a_at) / Fold change /veh TMPRSS4 (11747572_a_at) / RFU HAMP (11756126_x_at) / Fold change /veh HAMP (11756126_x_at) / RFU RNFT2 (11725882_a_at) / Fold change /veh RNFT2 (11725882_a_at) / RFU NR4A2 (11747474_a_at) / Fold change /veh NR4A2 (11747474_a_at) / RFU ABCC12 (11746883_a_at) / Fold change /veh ABCC12 (11746883_a_at) / RFU TMEM136 (11760407_x_at) / Fold change /veh TMEM136 (11760407_x_at) / RFU CLDN22 /// WWC2 (11732394_at) / Fold change /veh CLDN22 /// WWC2 (11732394_at) / RFU HLA-DPB1 (11760878_x_at) / Fold change /veh HLA-DPB1 (11760878_x_at) / RFU SPINT1 (11716480_a_at) / Fold change /veh SPINT1 (11716480_a_at) / RFU GAP43 (11754022_s_at) / Fold change /veh GAP43 (11754022_s_at) / RFU A4GNT (11735810_at) / Fold change /veh A4GNT (11735810_at) / RFU PRB3 (11715151_x_at) / Fold change /veh PRB3 (11715151_x_at) / RFU TUBB4B (11761932_at) / Fold change /veh TUBB4B (11761932_at) / RFU CAPN14 (11732068_a_at) / Fold change /veh CAPN14 (11732068_a_at) / RFU TMCC2 (11721928_a_at) / Fold change /veh TMCC2 (11721928_a_at) / RFU IRGQ (11745062_a_at) / Fold change /veh IRGQ (11745062_a_at) / RFU FAM174B (11720279_a_at) / Fold change /veh FAM174B (11720279_a_at) / RFU TMPRSS4 (11748680_a_at) / Fold change /veh TMPRSS4 (11748680_a_at) / RFU FAM212B (11763350_a_at) / Fold change /veh FAM212B (11763350_a_at) / RFU PLEKHG5 (11743358_a_at) / Fold change /veh PLEKHG5 (11743358_a_at) / RFU ZSCAN30 (11745921_a_at) / Fold change /veh ZSCAN30 (11745921_a_at) / RFU CMKLR1 (11741424_a_at) / Fold change /veh CMKLR1 (11741424_a_at) / RFU LOC101060620 /// MAPK8IP1 (11723275_at) / Fold change /veh LOC101060620 /// MAPK8IP1 (11723275_at) / RFU SPTSSB (11747773_x_at) / Fold change /veh SPTSSB (11747773_x_at) / RFU PRSS12 (11739890_at) / Fold change /veh PRSS12 (11739890_at) / RFU BIN1 (11741810_x_at) / Fold change /veh BIN1 (11741810_x_at) / RFU WNT11 (11732464_a_at) / Fold change /veh WNT11 (11732464_a_at) / RFU C10orf10 (11716521_a_at) / Fold change /veh C10orf10 (11716521_a_at) / RFU C5orf56 (11738089_at) / Fold change /veh C5orf56 (11738089_at) / RFU CYB561 (11721691_x_at) / Fold change /veh CYB561 (11721691_x_at) / RFU ANKRD19P (11752326_a_at) / Fold change /veh ANKRD19P (11752326_a_at) / RFU OR2T12 /// OR2T33 /// OR2T8 (11738714_s_at) / Fold change /veh OR2T12 /// OR2T33 /// OR2T8 (11738714_s_at) / RFU VCAN (11748164_a_at) / Fold change /veh VCAN (11748164_a_at) / RFU JSRP1 (11732532_at) / Fold change /veh JSRP1 (11732532_at) / RFU KRTAP10-11 (11738290_x_at) / Fold change /veh KRTAP10-11 (11738290_x_at) / RFU MYO3A (11730013_a_at) / Fold change /veh MYO3A (11730013_a_at) / RFU EBF3 (11725865_a_at) / Fold change /veh EBF3 (11725865_a_at) / RFU CAMK2N1 (11719241_x_at) / Fold change /veh CAMK2N1 (11719241_x_at) / RFU C5orf56 (11738088_a_at) / Fold change /veh C5orf56 (11738088_a_at) / RFU OLFML3 (11715873_a_at) / Fold change /veh OLFML3 (11715873_a_at) / RFU LOC100653217 /// NTM (11731650_a_at) / Fold change /veh LOC100653217 /// NTM (11731650_a_at) / RFU MAPK11 (11762145_a_at) / Fold change /veh MAPK11 (11762145_a_at) / RFU FIZ1 (11724087_x_at) / Fold change /veh FIZ1 (11724087_x_at) / RFU OASL (11726364_x_at) / Fold change /veh OASL (11726364_x_at) / RFU SOX15 (11748057_x_at) / Fold change /veh SOX15 (11748057_x_at) / RFU CD79A (11719716_a_at) / Fold change /veh CD79A (11719716_a_at) / RFU HIST1H1D (11736915_at) / Fold change /veh HIST1H1D (11736915_at) / RFU CASKIN2 (11723855_a_at) / Fold change /veh CASKIN2 (11723855_a_at) / RFU LOC730098 (11760151_x_at) / Fold change /veh LOC730098 (11760151_x_at) / RFU OR4N2 (11742367_at) / Fold change /veh OR4N2 (11742367_at) / RFU PRRT2 (11749266_a_at) / Fold change /veh PRRT2 (11749266_a_at) / RFU SNX32 (11753110_a_at) / Fold change /veh SNX32 (11753110_a_at) / RFU CDHR5 (11726645_a_at) / Fold change /veh CDHR5 (11726645_a_at) / RFU RCAN1 (11760418_a_at) / Fold change /veh RCAN1 (11760418_a_at) / RFU FAM167A (11723789_a_at) / Fold change /veh FAM167A (11723789_a_at) / RFU FAM26E (11764081_at) / Fold change /veh FAM26E (11764081_at) / RFU ISYNA1 (11749810_s_at) / Fold change /veh ISYNA1 (11749810_s_at) / RFU ACY1 (11761880_at) / Fold change /veh ACY1 (11761880_at) / RFU 11764098_at / Fold change /veh 11764098_at / RFU SAMD14 (11745864_x_at) / Fold change /veh SAMD14 (11745864_x_at) / RFU NPB (11741838_a_at) / Fold change /veh NPB (11741838_a_at) / RFU TMPRSS6 (11731388_a_at) / Fold change /veh TMPRSS6 (11731388_a_at) / RFU KRTAP10-2 (11738614_at) / Fold change /veh KRTAP10-2 (11738614_at) / RFU ARHGAP8 /// PRR5-ARHGAP8 (11727945_x_at) / Fold change /veh ARHGAP8 /// PRR5-ARHGAP8 (11727945_x_at) / RFU KRTAP5-7 /// NADSYN1 (11734609_at) / Fold change /veh KRTAP5-7 /// NADSYN1 (11734609_at) / RFU RASL12 (11751679_a_at) / Fold change /veh RASL12 (11751679_a_at) / RFU CDKN2B (11736163_a_at) / Fold change /veh CDKN2B (11736163_a_at) / RFU PRF1 (11729649_at) / Fold change /veh PRF1 (11729649_at) / RFU, ZNF638 /// ZNF638-IT1 / Fold change vs veh, ZNF638 /// ZNF638-IT1 / RFU, PANK3 / Fold change vs veh, PANK3 / RFU, SH3YL1 / Fold change vs veh, SH3YL1 / RFU, ZEB2 / Fold change vs veh, ZEB2 / RFU, NRIP1 / Fold change vs veh, NRIP1 / RFU, PTTG1IP / Fold change vs veh, PTTG1IP / RFU, CAPN2 / Fold change vs veh, CAPN2 / RFU, MED14 / Fold change vs veh, MED14 / RFU, SNORA58 / Fold change vs veh, SNORA58 / RFU, C1orf63 / Fold change vs veh, C1orf63 / RFU, LRRFIP1 / Fold change vs veh, LRRFIP1 / RFU, NDUFAF7 / Fold change vs veh, NDUFAF7 / RFU, SLC12A2 / Fold change vs veh, SLC12A2 / RFU, IBTK / Fold change vs veh, IBTK / RFU, ESF1 / Fold change vs veh, ESF1 / Fold change vs veh, TMEM50B / RFU, TAOK1 / Fold change vs veh, TAOK1 / RFU, ACBD3 / Fold change vs veh, ACBD3 / RFU, TMA16 / Fold change vs veh, TMA16 / RFU, RWDD3 / Fold change vs veh, RWDD3 / RFU, BCAT1 / Fold change vs veh, BCAT1 / RFU, EDEM3 / Fold change vs veh, EDEM3 / RFU, TMEM33 / Fold change vs veh, TMEM33 / RFU, WDR75 / Fold change vs veh, WDR75 / RFU, AHCTF1 / Fold change vs veh, AHCTF1 / RFU, TFRC / Fold change vs veh, TFRC / RFU, ZDHHC17 / Fold change vs veh, ZDHHC17 / RFU, NOM1 / Fold change vs veh, NOM1 / RFU, ARL8B / Fold change vs veh, ARL8B / RFU, ZBTB11 / Fold change vs veh, ZBTB11 / RFU, TAMM41 / Fold change vs veh, TAMM41 / RFU, KIAA1704 /// LOC100996395 / Fold change vs veh, KIAA1704 /// LOC100996395 / RFU, ING1 / Fold change vs veh, ING1 / RFU, TRMT61B / Fold change vs veh, TRMT61B / RFU, FUBP3 / Fold change vs veh, FUBP3 / RFU, TP53 / Fold change vs veh, TP53 / RFU, TNKS2 / Fold change vs veh, TNKS2 / RFU, ZFP14 / Fold change vs veh, ZFP14 / RFU, ACTR2 / Fold change vs veh, ACTR2 / RFU, PPP3R1 / Fold change vs veh, PPP3R1 / RFU, PIK3R1 / Fold change vs veh, PIK3R1 / RFU, HNRNPA1 / Fold change vs veh, HNRNPA1 / RFU, RNF170 / Fold change vs veh, RNF170 / RFU, ZNF28 / Fold change vs veh, ZNF28 / RFU, RNGTT / Fold change vs veh, RNGTT / RFU, OGT / Fold change vs veh, OGT / RFU, BRD1 / Fold change vs veh, BRD1 / RFU, MARS / Fold change vs veh, MARS / RFU, ZNF655 / Fold change vs veh, ZNF655 / RFU, FAHD1 / Fold change vs veh, FAHD1 / RFU, BDP1 / Fold change vs veh, BDP1 / RFU, LRRCC1 / Fold change vs veh, LRRCC1 / RFU, ARID1A / Fold change vs veh, ARID1A / RFU, ZNF146 / Fold change vs veh, ZNF146 / RFU, ZNF330 / Fold change vs veh, ZNF330 / RFU, GPN3 / Fold change vs veh, GPN3 / RFU, C9orf123 / Fold change vs veh, C9orf123 / RFU, N4BP2L2 / Fold change vs veh, N4BP2L2 / RFU, ARFIP1 / Fold change vs veh, ARFIP1 / RFU, FAM179B / Fold change vs veh, FAM179B / RFU, BCL10 / Fold change vs veh, BCL10 / RFU, UHRF1BP1L / Fold change vs veh, UHRF1BP1L / RFU, BET1 / Fold change vs veh, BET1 / RFU, CNOT2 / Fold change vs veh, CNOT2 / RFU, ZNF268 / Fold change vs veh, ZNF268 / Fold change vs veh, ZNF507 / RFU, DGCR2 / Fold change vs veh, DGCR2 / RFU, WDSUB1 / Fold change vs veh, WDSUB1 / Fold change vs veh, HSP90B1 /// MIR3652 / RFU, ADSS / Fold change vs veh, ADSS / RFU, GK / Fold change vs veh, GK / RFU, ZNF148 / Fold change vs veh, ZNF148 / RFU, TAF9 / Fold change vs veh, TAF9 / RFU, SLC1A5 / Fold change vs veh, SLC1A5 / RFU, SLMO2 / Fold change vs veh, SLMO2 / RFU, ABCC4 / Fold change vs veh, ABCC4 / RFU, LOC101060439 /// RAP1B / Fold change vs veh, LOC101060439 /// RAP1B / RFU, RFX7 / Fold change vs veh, RFX7 / RFU, GTPBP10 / Fold change vs veh, GTPBP10 / RFU, CNEP1R1 / Fold change vs veh, CNEP1R1 / RFU, BIVM-ERCC5 /// ERCC5 / Fold change vs veh, BIVM-ERCC5 /// ERCC5 / RFU, ILF3 / Fold change vs veh, ILF3 / RFU 11762660_at / Fold change /veh 11762660_at / RFU VCAN (11757783_s_at) / Fold change /veh VCAN (11757783_s_at) / RFU DDX43 (11728927_at) / Fold change /veh DDX43 (11728927_at) / RFU KRT8 (11758188_x_at) / Fold change /veh KRT8 (11758188_x_at) / RFU NKD1 (11759106_at) / Fold change /veh NKD1 (11759106_at) / RFU SRD5A1 (11742802_a_at) / Fold change /veh SRD5A1 (11742802_a_at) / RFU TPSAB1 /// TPSB2 (11721975_s_at) / Fold change /veh TPSAB1 /// TPSB2 (11721975_s_at) / RFU GSTM3 (11746129_a_at) / Fold change /veh GSTM3 (11746129_a_at) / RFU IL23R (11737362_x_at) / Fold change /veh IL23R (11737362_x_at) / RFU TMEM51 (11727254_a_at) / Fold change /veh TMEM51 (11727254_a_at) / RFU PIWIL2 (11732686_x_at) / Fold change /veh PIWIL2 (11732686_x_at) / RFU ORM1 (11744905_x_at) / Fold change /veh ORM1 (11744905_x_at) / RFU CCDC152 (11743942_at) / Fold change /veh CCDC152 (11743942_at) / RFU ECM1 (11717891_a_at) / Fold change /veh ECM1 (11717891_a_at) / RFU IL23R (11748794_a_at) / Fold change /veh IL23R (11748794_a_at) / RFU TNFAIP8L3 (11732012_x_at) / Fold change /veh TNFAIP8L3 (11732012_x_at) / RFU MBOAT4 (11741988_at) / Fold change /veh MBOAT4 (11741988_at) / RFU 11764193_at / Fold change /veh 11764193_at / RFU TMEM53 (11763286_at) / Fold change /veh TMEM53 (11763286_at) / RFU MAGEB2 (11727129_at) / Fold change /veh MAGEB2 (11727129_at) / RFU TMEM200A (11744735_a_at) / Fold change /veh TMEM200A (11744735_a_at) / RFU CCDC152 (11751479_a_at) / Fold change /veh CCDC152 (11751479_a_at) / RFU FAM211A (11726209_a_at) / Fold change /veh FAM211A (11726209_a_at) / RFU RGS16 (11746705_a_at) / Fold change /veh RGS16 (11746705_a_at) / RFU VCAN (11755009_s_at) / Fold change /veh VCAN (11755009_s_at) / RFU RHOB (11743442_s_at) / Fold change /veh RHOB (11743442_s_at) / RFU RGS16 (11720943_a_at) / Fold change /veh RGS16 (11720943_a_at) / RFU RGS16 (11720944_at) / Fold change /veh RGS16 (11720944_at) / RFU, VPS4B / Fold change vs veh, VPS4B / RFU, CREB1 / Fold change vs veh, CREB1 / RFU, DNAJC13 / Fold change vs veh, DNAJC13 / RFU, GNAQ / Fold change vs veh, GNAQ / RFU, CDK5R1 / Fold change vs veh, CDK5R1 / RFU, ZRANB3 / Fold change vs veh, ZRANB3 / RFU, CUL4A / Fold change vs veh, CUL4A / RFU, CCNY / Fold change vs veh, CCNY / RFU, UFL1 / Fold change vs veh, UFL1 / RFU, COG3 / Fold change vs veh, COG3 / RFU, DIAPH2 / Fold change vs veh, DIAPH2 / RFU, SKA2 / Fold change vs veh, SKA2 / RFU, AFF3 / Fold change vs veh, AFF3 / RFU, LMF1 / Fold change vs veh, LMF1 / RFU, IPO11 / Fold change vs veh, IPO11 / RFU, DFFB / Fold change vs veh, DFFB / RFU, FOXP1 / Fold change vs veh, FOXP1 / RFU, CARD8 / Fold change vs veh, CARD8 / RFU, STRN3 / Fold change vs veh, STRN3 / RFU, ADK / Fold change vs veh, ADK / RFU, RASSF2 / Fold change vs veh, RASSF2 / RFU, WIPF1 / Fold change vs veh, WIPF1 / RFU, LARP1B / Fold change vs veh, LARP1B / RFU, RASA1 / Fold change vs veh, RASA1 / RFU, RB1 / Fold change vs veh, RB1 / RFU, PPFIA1 / Fold change vs veh, PPFIA1 / RFU, MAT2A / Fold change vs veh, MAT2A / RFU, CCT5 / Fold change vs veh, CCT5 / RFU, WDR92 / Fold change vs veh, WDR92 / RFU, CUX1 / Fold change vs veh, CUX1 / RFU, TTC7A / Fold change vs veh, TTC7A / RFU, TMEM135 / Fold change vs veh, TMEM135 / RFU, DEPTOR / Fold change vs veh, DEPTOR / RFU, CPM / Fold change vs veh, CPM / RFU, DNAJB6 / Fold change vs veh, DNAJB6 / RFU, CACNA2D3 / Fold change vs veh, CACNA2D3 / RFU, DTX4 / Fold change vs veh, DTX4 / RFU, TFCP2 / Fold change vs veh, TFCP2 / RFU, GMCL1 /// GMCL1P1 / Fold change vs veh, GMCL1 /// GMCL1P1 / RFU, AEBP2 / Fold change vs veh, AEBP2 / RFU, SNHG1 /// SNORD22 /// SNORD25 /// SNORD26 /// SNORD27 /// SNORD28 /// SNORD29 /// SNORD31 / Fold change vs veh, SNHG1 /// SNORD22 /// SNORD25 /// SNORD26 /// SNORD27 /// SNORD28 /// SNORD29 /// SNORD31 / Fold change (Aza/veh), C12orf56 (ProbeSet 11735607_a_at) / Fold change (ACY-1035/veh), C12orf56 (ProbeSet 11735607_a_at) / Fold change (Aza/veh), FGFR1OP (ProbeSet 11751329_s_at) / Fold change (ACY-1035/veh), FGFR1OP (ProbeSet 11751329_s_at) / Fold change (Aza/veh), VPS36 (ProbeSet 11739960_a_at) / Fold change (ACY-1035/veh), VPS36 (ProbeSet 11739960_a_at) / RFU SYPL1 (11715823_x_at) / Fold change /veh SYPL1 (11715823_x_at) / RFU IGFBP7 (11715501_s_at) / Fold change /veh IGFBP7 (11715501_s_at) / RFU REEP3 (11722064_at) / Fold change /veh REEP3 (11722064_at) / RFU IGLL1 (11728026_x_at) / Fold change /veh IGLL1 (11728026_x_at): dose or concentration left out as unconfirmed. It counts as cell-based, human.

Regarding `Nc1ncn([C@@H]2O[C@H](CO)[C@@H](O)[C@H]2O)c(=O)n1` [azacitidine], the “RFU, TAOK1” value turned out to be 59.03 RFU.
